We go through 4 molecules from patent publication US9126999B2, “Tetrahydropyrazolopyrimidine compounds” (EISAI R&D MANAGEMENT CO., LTD., priority 2012, dated 2015).

One test concerns T1, Human TLR7/8.
T1 construct: IC50; other: Hu PBMC; ligand RNA-Ig; analyte IL-6; analyte TNFα; ligand R848; IC50 against the RNA-Ig TLR7/8 stimulus; cytokine responses to RNA-Ig complexes in vitro; potency against the RNA-Ig TLR7/8 stimulus versus HCQ
The test is described as follows: Human PBMC cell-based assay, RNA-Ig (SL4-Ig) stimulus, cytokine ELISA. As to the method:
Briefly, 25 ml blood was diluted with 15 ml PBS (without Ca^2+, Mg^2+) in a 50 ml conical tube, and 12 ml Histopaque was underlaid using a spinal needle. Tubes were centrifuged for 45 minutes at 1200 rpm (350×g), and PBMC were collected from the buffy coat. Cells were then washed twice in PBS, and red blood cells were lysed by suspension in 5 ml ammonium chloride solution (1× Red Blood Cell Lysis Buffer, eBioscience) for 5 minutes at room temperature.
Antagonist compounds solubilized and serial diluted in 100% DMSO were added in triplicate to cells to yield a final concentration of 0.1% DMSO (v/v). Hydroxychloroquine (Acros Organics) solubilized and serial diluted in PBS was added in triplicate to cells. […] The resulting “RNA-Ig” stimulus was incubated at room temperature for 15-30 minutes before adding to cells. PBMC were incubated with the various TLR agonists for 20 hours at 37° C., 5% CO2. Cell culture supernatants were collected, and levels of various human cytokines were assessed as indicated by standard ELISA procedure according to the manufacturer's recommended protocol (BD Biosciences, Inc., San Diego, Calif.).
In general terms: An ELISA detects its analyte on a solid surface through an enzyme-linked reagent.

A further test deals with T2, Mouse TLR7 (Mus musculus, UniProt P58681).
T2 construct: endogenous in cells; host or cells: female BALB/c mice, in vivo
T2 sequence (P58681 27-1050): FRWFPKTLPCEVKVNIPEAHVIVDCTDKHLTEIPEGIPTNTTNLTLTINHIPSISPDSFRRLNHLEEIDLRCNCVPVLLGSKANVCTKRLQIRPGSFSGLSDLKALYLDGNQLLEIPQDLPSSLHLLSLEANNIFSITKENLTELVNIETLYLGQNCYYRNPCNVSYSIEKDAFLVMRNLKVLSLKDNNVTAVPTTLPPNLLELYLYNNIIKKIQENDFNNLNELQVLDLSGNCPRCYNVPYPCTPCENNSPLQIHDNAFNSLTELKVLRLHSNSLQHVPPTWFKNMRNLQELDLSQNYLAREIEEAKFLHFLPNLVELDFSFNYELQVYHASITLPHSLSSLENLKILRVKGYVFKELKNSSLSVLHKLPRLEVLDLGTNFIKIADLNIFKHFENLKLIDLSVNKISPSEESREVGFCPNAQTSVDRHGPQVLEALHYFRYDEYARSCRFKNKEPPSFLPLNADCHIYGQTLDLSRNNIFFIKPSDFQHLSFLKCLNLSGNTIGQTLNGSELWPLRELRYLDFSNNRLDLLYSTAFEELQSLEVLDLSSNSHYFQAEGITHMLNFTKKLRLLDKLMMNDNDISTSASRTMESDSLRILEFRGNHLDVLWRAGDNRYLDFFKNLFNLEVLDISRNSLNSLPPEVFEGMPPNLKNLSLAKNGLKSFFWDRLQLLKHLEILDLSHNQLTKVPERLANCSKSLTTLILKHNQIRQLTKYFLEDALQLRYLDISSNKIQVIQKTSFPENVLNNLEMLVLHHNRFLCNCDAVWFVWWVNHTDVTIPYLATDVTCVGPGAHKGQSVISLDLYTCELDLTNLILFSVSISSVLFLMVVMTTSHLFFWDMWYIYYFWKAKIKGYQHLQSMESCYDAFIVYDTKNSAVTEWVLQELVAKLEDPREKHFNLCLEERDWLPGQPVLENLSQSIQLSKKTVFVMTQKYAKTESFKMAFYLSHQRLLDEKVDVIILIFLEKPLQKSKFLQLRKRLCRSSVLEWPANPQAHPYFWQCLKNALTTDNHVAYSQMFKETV
Kind of test: Mouse spleen cell-based assay, R848 stimulus, IL-6 ELISA. As to the method:
Spleens were harvested from female BALB/c mice (Jackson Labs, Bar Harbor, Me.) euthanized by CO2. A single cell suspension was obtained by passing spleens through a 40 μm nylon cell strainer. Cells were washed twice with 50 ml PBS (Mediatech, Inc., Manassas, Va.) and red blood cells were lysed in 5 ml RBC Lysis buffer (eBioscience, Inc., San Diego, Calif.) for 5 minutes at room temperature. Cells were washed twice more in PBS and finally resuspended in supplemented RPMI-1640 at 2.5×10^6 cells/ml. Cells were plated at 100 μl/well (2.5×10^5 cells/well) in 96-well tissue culture treated plates (Falcon). Serial dilutions of compounds solubilized in 100% DMSO were added in triplicate to cells to yield a final concentration of 0.1% DMSO. Cells were incubated with compound for 30 minutes at 37° C., 5% CO2 before adding 100 μl/well of 740 nM R848 (Resiquimod; GLSynthesis, Worcester, Mass.) in complete media for a final concentration of 370 nM R848. Cells were incubated for 20 hours at 37° C., 5% CO2. Culture supernatants were collected, and levels of IL-6 were assessed by standard ELISA procedure according to the manufacturer's recommended protocol (BD Biosciences, Inc., San Diego, Calif.).

[1] abbreviates: Human PBMC IL-6 Inhibition (SL4-Ig Ligand), read-out: Human PBMC IC50.
The mark [2] stands for this setting: Mouse Splenocyte IL-6 Inhibition (R848 Ligand), read-out: Mouse Splenocyte IC50.

“And” between values parts separate entries of the source, which are not always exact repeats. Equal values may be shown once. Read-outs that look alike come from different tables or passages of the source.

For the molecule `COc1ccc([C@@H]2C[C@H](C(F)(F)F)n3nc(-c4ccncc4)cc3N2)cc1OC` [ER-885454], the IC50 amounted to 676 nM in the test with Human TLR7/8 (setting [1]) and 680 nM at Mouse TLR7 (setting [2]).
In the case of `COc1ccc([C@@H]2C[C@H](C(F)(F)F)n3nc(-c4ccc(C(=O)N5CCNCC5)cc4)cc3N2)cc1OC` [ER-892887, (4-((5S,7R)-5-(3,4-dimethoxyphenyl)-7-(trifluoromethyl)-4,5,6,7-tetrahydropyrazolo[1,5-a]pyrimidin-2-yl)phenyl)(piperazin-1-yl)methanone], the “cytokine responses to RNA-Ig complexes in vitro” value in the test on Human TLR7/8 is reported as “blocks”. The IC50 was 13 nM with Human TLR7/8 (Hu PBMC, ligand RNA-Ig, analyte TNFα, read-out: IC50); 40 nM and 51 nM in the test with Human TLR7/8 (setting [1]); 15 nM with Human TLR7/8 (read-out: IC50 against the RNA-Ig TLR7/8 stimulus); 70 nM and 330 nM at Mouse TLR7 (setting [2]); 70 nM on Mouse TLR7 (Mu Spleen, ligand R848, analyte IL-6, read-out: IC50). The “potency against the RNA-Ig TLR7/8 stimulus versus HCQ” value with Human TLR7/8 (ratio of IC50 values, more potent than HCQ) was “approximately 100 fold”.
As for `Cc1nn(C)cc1[C@@H]1C[C@H](C(F)(F)F)n2nc(-c3ccc(NC(N)=O)cc3)cc2N1` [ER-894595], the IC50 is 2160 nM in the test on Human TLR7/8 (setting [1]) and 3110 nM at Mouse TLR7 (setting [2]).
In the same order, the values of `Cc1nn(C)cc1[C@H]1C[C@@H](C(F)(F)F)n2nc(-c3ccc(NC(N)=O)cc3)cc2N1` [ER-894596] are 1750 nM and 3020 nM.
